Experimental data published in ChEMBL document CHEMBL4390696, “Orientation preferences of hairpin pyrrole-imidazole polyamides toward mCGG site” (Bioorg Med Chem, 2019).

How the values were obtained:
[1] = Binding affinity to 5'-ATmCGGAT-3' DNA (unknown origin) in reverse orientation assessed as change in melting temperature at 5 uM by UV-vis spectrophotometry
[2] = Binding affinity to 5'-ATCGGAT-3' DNA (unknown origin) assessed as association constant incubated for 180 secs by SPR analysis
[3] = Binding affinity to 5'-ATmCGGAT-3' DNA (unknown origin) assessed as dissociation constant incubated for 180 secs by SPR analysis
[4] = Orientation preference, ratio of change in melting temperature of forward binding site of 5'-ATmCGGAT-3' DNA (unknown origin) to sum of change in melting temperature of forward binding site and change in melting temperature of reverse binding site for 5'-ATmCGGAT-3' DNA (unknown origin)
[5] = Binding affinity to 5'-ATCGGAT-3' DNA (unknown origin) assessed as dissociation constant incubated for 180 secs by SPR analysis
[6] = Binding affinity to 5'-ATmCGGAT-3' DNA (unknown origin) assessed as association constant incubated for 180 secs by SPR analysis
[7] = Binding affinity to 5'-ATCGGAT-3' DNA (unknown origin) assessed as dissociation rate constant incubated for 180 secs by SPR analysis
[8] = Binding preference index, ratio of Kd for 5'-ATmCGGAT-3' DNA (unknown origin) to Kd for 5'-ATCGGAT-3' DNA (unknown origin)
[9] = Binding affinity to 5'-ATGGmCAT-3' DNA (unknown origin) in reverse orientation assessed as change in melting temperature at 5 uM by UV-vis spectrophotometry
[10] = Binding affinity to 5'-ATmCGGAT-3' DNA (unknown origin) assessed as dissociation rate constant incubated for 180 secs by SPR analysis
[11] = Binding affinity to mCGG containing DNA assessed as inhibition of mouse TET1 catalytic domain binding to methylated 18 bp DNAs assessed as reduction in TET1-methylated DNA complex formation incubated for 30 mins by electrophoretic mobility shift assay
[12] = Binding affinity to 5'-ATGGmCAT-3' DNA (unknown origin) in forward orientation assessed as change in melting temperature at 5 uM by UV-vis spectrophotometry
[13] = Binding affinity to 5'-ATmCGGAT-3' DNA (unknown origin) in forward orientation assessed as change in melting temperature at 5 uM by UV-vis spectrophotometry
[14] = Orientation preference, ratio of change in melting temperature of forward binding site of 5'-ATGGmCAT-3' DNA (unknown origin) to sum of change in melting temperature of forward binding site and change in melting temperature of reverse binding site for 5'-ATGGmCAT-3' DNA (unknown origin)

ΔTm [1] | Ka [2] | Kd [3] | Ratio [4] | Kd [5] | Ka [6] | Dissociation rate constant (koff) [7] | Ratio [8] | ΔTm [9] | Dissociation rate constant (koff) [10] | IC50 ([11]; read-out: IC50) | ΔTm [12] | ΔTm [13] | Ratio [14] | IC50 [11] | SMILES
20.8 °C | 2.4 ×10⁶ /M/s | 2.3 nM | 0.39 | 3.6 nM | 2.5 ×10⁶ /M/s | 8.6 ×10⁻³ /s | 1.1 | 13.3 °C | 5.8 ×10⁻³ /s | 120 nM | – | – | – | – | CC(=O)Nc1cc(C(=O)Nc2cn(C)c(C(=O)NCCC(=O)Nc3cc(C(=O)NCC[C@H](N)C(=O)Nc4cn(C)c(C(=O)Nc5cn(C)c(C(=O)NCCC(=O)Nc6cc(C(=O)NCCC(=O)NCCCN(C)C)n(C)c6)n5)n4)n(C)c3)n2)n(C)c1
1.6 °C | – | – | 0.19 | – | – | – | – | 6.7 °C | – | 2560 nM | – | – | – | – | CC(=O)Nc1cc(C(=O)Nc2cc(C(=O)Nc3cn(C)c(C(=O)Nc4cc(C(=O)NCCCC(=O)Nc5cc(C(=O)Nc6cc(C(=O)Nc7cn(C)c(C(=O)Nc8cn(C)c(C(=O)NCCC(=O)NCCCN(C)C)n8)n7)n(C)c6)n(C)c5)n(C)c4)n3)n(C)c2)n(C)c1
– | 9.7 ×10⁵ /M/s | 130 nM | – | 150 nM | 1.2 ×10⁶ /M/s | 1.5 ×10⁻¹ /s | 0.9 | – | 1.6 ×10⁻¹ /s | – | 10.9 °C | 7.6 °C | 0.59 | – | CC(=O)Nc1cc(C(=O)Nc2cn(C)c(C(=O)Nc3cc(C(=O)Nc4cc(C(=O)NCCCC(=O)Nc5cn(C)c(C(=O)Nc6cn(C)c(C(=O)NCCC(=O)Nc7cc(C(=O)NCCC(=O)NCCCN(C)C)n(C)c7)n6)n5)n(C)c4)n(C)c3)n2)n(C)c1
3.3 °C | 3.6 ×10⁴ /M/s | 480 nM | 0.2 | 530 nM | 3.1 ×10⁴ /M/s | 1.9 ×10⁻² /s | 0.9 | 13.1 °C | 1.5 ×10⁻² /s | – | – | – | – | – | CC(=O)Nc1cc(C(=O)NCCC(=O)Nc2cn(C)c(C(=O)Nc3cc(C(=O)NCCCC(=O)Nc4cc(C(=O)Nc5cc(C(=O)Nc6cn(C)c(C(=O)Nc7cn(C)c(C(=O)NCCC(=O)NCCCN(C)C)n7)n6)n(C)c5)n(C)c4)n(C)c3)n2)n(C)c1
11.8 °C | 9 ×10⁶ /M/s | 8.9 nM | 0.42 | 9.8 nM | 7.4 ×10⁶ /M/s | 8.9 ×10⁻² /s | 0.9 | 16.2 °C | 6.6 ×10⁻² /s | – | – | – | – | – | CC(=O)Nc1cc(C(=O)NCCC(=O)Nc2cn(C)c(C(=O)Nc3cc(C(=O)NCCCC(=O)Nc4cc(C(=O)NCCC(=O)Nc5cn(C)c(C(=O)Nc6cn(C)c(C(=O)NCCC(=O)NCCCN(C)C)n6)n5)n(C)c4)n(C)c3)n2)n(C)c1
18.1 °C | 1.4 ×10⁶ /M/s | 2.8 nM | 0.32 | 1.7 nM | 1.1 ×10⁶ /M/s | 2.4 ×10⁻³ /s | 1.6 | 8.6 °C | 3.2 ×10⁻³ /s | – | – | – | – | – | CC(=O)Nc1cc(C(=O)Nc2cn(C)c(C(=O)NCCC(=O)Nc3cc(C(=O)NCCCC(=O)Nc4cn(C)c(C(=O)Nc5cn(C)c(C(=O)NCCC(=O)Nc6cc(C(=O)NCCC(=O)NCCCN(C)C)n(C)c6)n5)n4)n(C)c3)n2)n(C)c1
16 °C | 4.2 ×10⁶ /M/s | 1.7 nM | 0.47 | 1.7 nM | 3.2 ×10⁶ /M/s | 7.2 ×10⁻³ /s | 1 | 17.9 °C | 5.3 ×10⁻³ /s | 170 nM | – | – | – | – | CC(=O)Nc1cc(C(=O)NCCC(=O)Nc2cn(C)c(C(=O)Nc3cc(C(=O)NCC[C@@H](N)C(=O)Nc4cc(C(=O)NCCC(=O)Nc5cn(C)c(C(=O)Nc6cn(C)c(C(=O)NCCC(=O)NCCCN(C)C)n6)n5)n(C)c4)n(C)c3)n2)n(C)c1
– | 8.2 ×10⁵ /M/s | 610 nM | – | 150 nM | 3.2 ×10⁵ /M/s | 1.2 ×10⁻¹ /s | 4.1 | – | 2 ×10⁻¹ /s | – | 12.5 °C | 10.8 °C | 0.54 | – | CC(=O)Nc1cc(C(=O)Nc2cn(C)c(C(=O)NCCC(=O)Nc3cc(C(=O)NCCCC(=O)Nc4cn(C)c(C(=O)Nc5cn(C)c(C(=O)Nc6cc(C(=O)Nc7cc(C(=O)NCCC(=O)NCCCN(C)C)n(C)c7)n(C)c6)n5)n4)n(C)c3)n2)n(C)c1
– | 1.2 ×10⁴ /M/s | 61 nM | – | 48 nM | 4.3 ×10³ /M/s | 5.9 ×10⁻⁴ /s | 1.3 | – | 2.6 ×10⁻⁴ /s | – | 21.5 °C | 1.4 °C | 0.94 | Not Active | CC(=O)Nc1cc(C(=O)Nc2cn(C)c(C(=O)Nc3cc(C(=O)Nc4cc(C(=O)NCCCC(=O)Nc5cn(C)c(C(=O)Nc6cn(C)c(C(=O)Nc7cc(C(=O)Nc8cc(C(=O)NCCC(=O)NCCCN(C)C)n(C)c8)n(C)c7)n6)n5)n(C)c4)n(C)c3)n2)n(C)c1
5.9 °C | 5.2 ×10⁵ /M/s | 46 nM | 0.29 | 21 nM | 5.1 ×10⁵ /M/s | 1.1 ×10⁻² /s | 2.2 | 14.8 °C | 2.3 ×10⁻² /s | – | – | – | – | – | CC(=O)Nc1cc(C(=O)Nc2cc(C(=O)Nc3cn(C)c(C(=O)Nc4cc(C(=O)NCCCC(=O)Nc5cc(C(=O)NCCC(=O)Nc6cn(C)c(C(=O)Nc7cn(C)c(C(=O)NCCC(=O)NCCCN(C)C)n7)n6)n(C)c5)n(C)c4)n3)n(C)c2)n(C)c1
